According to ChEMBL document CHEMBL1201862, “PubChem BioAssay data set” (2004):
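In this assay, cells in 96-well plates receive the compound at five concentrations for 48 hours. Endpoints are linearly interpolated between the surrounding concentrations. GI50 marks 50% less growth.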 Calls of active or inactive are those of the source. No stated cut-off is given here; in the data, active = GI50 up to about 1.1 µM and inactive = higher.

Legend:
Test in all cases: NCI tumour cell line growth inhibition, 48 h
DU-145 = tested on: DU-145
SF-295 = tested on: SF-295
UACC-257 = tested on: UACC-257
Hs-578T = tested on: Hs-578T
RPMI-8226 = tested on: RPMI-8226
BT-549 = tested on: BT-549
786-0 = tested on: 786-0
CAKI-1 = tested on: CAKI-1
UO-31 = tested on: UO-31
SF-539 = tested on: SF-539
OVCAR-5 = tested on: OVCAR-5
OVCAR-8 = tested on: OVCAR-8
HCT-116 = tested on: HCT-116
PC-3 = tested on: PC-3
ACHN = tested on: ACHN
OVCAR-3 = tested on: OVCAR-3
Malme-3M = tested on: Malme-3M
RXF 393 = tested on: RXF 393
A498 = tested on: A498
NCI-H226 = tested on: NCI-H226

Measured: GI50

O=C1Nc2ccccc2/C1=N/NC(=S)Nc1ccc([N+](=O)[O-])cc1
inactive: DU-145 14.8 µM | SF-295 6.64 µM | UACC-257 21.1 µM | Hs-578T 15.6 µM | RPMI-8226 13.5 µM | BT-549 14.4 µM | 786-0 4.81 µM | CAKI-1 6.07 µM | UO-31 4.81 µM | SF-539 13.8 µM | OVCAR-5 22.9 µM | OVCAR-8 1.77 µM | HCT-116 5.71 µM | PC-3 3.17 µM | ACHN 6.84 µM | OVCAR-3 13.4 µM | Malme-3M 5.28 µM

CC1(C)CCC(C)(C)c2cc(C(=O)Nc3ccc(C(=O)O)cc3)ccc21
inactive: DU-145 28.4 µM | SF-295 22 µM | UACC-257 28.2 µM | RXF 393 7.62 µM | RPMI-8226 14.5 µM | BT-549 25.5 µM | 786-0 28.9 µM | A498 31.7 µM | CAKI-1 18.4 µM | UO-31 14.9 µM | SF-539 13.4 µM | NCI-H226 > 44.8 µM | OVCAR-5 32.3 µM | OVCAR-8 30.5 µM | HCT-116 19.3 µM | PC-3 19.9 µM | ACHN 21.5 µM | OVCAR-3 17.9 µM | Malme-3M 18.7 µM

Cc1ccc(NC(=O)/C(CC2Nc3c(ccc4c3C(=O)c3ccccc3C4=O)NC2O)=N/NC(C)(C)C)cc1 (stereo not given)
inactive: DU-145 7.36 µM | SF-295 27.9 µM | UACC-257 16.1 µM | RXF 393 11.1 µM | Hs-578T 9.4 µM | BT-549 22 µM | 786-0 4.52 µM | CAKI-1 8.3 µM | UO-31 3.7 µM | SF-539 7.59 µM | OVCAR-5 26.5 µM | OVCAR-8 6.52 µM | HCT-116 12.5 µM | PC-3 15.8 µM | ACHN 12.4 µM | OVCAR-3 18.7 µM

O=[N+]([O-])c1ccc2c(c1)c(S(=O)(=O)O)cc1nonc12
inactive: SF-295 > 100 µM | UACC-257 > 100 µM | Hs-578T > 100 µM | RPMI-8226 > 100 µM | BT-549 > 100 µM | 786-0 > 100 µM | A498 > 100 µM | CAKI-1 > 100 µM | UO-31 > 100 µM | SF-539 > 100 µM | NCI-H226 > 100 µM | OVCAR-5 > 100 µM | OVCAR-8 > 100 µM | HCT-116 > 100 µM | PC-3 > 100 µM | ACHN > 100 µM | OVCAR-3 > 100 µM | Malme-3M > 100 µM

COC1CN(C)/C(=N\c2cccc3ccccc23)S1 (stereo not given)
inactive: DU-145 > 10 µM | SF-295 2.75 µM | UACC-257 > 10 µM | Hs-578T > 10 µM | RPMI-8226 > 10 µM | BT-549 > 10 µM | 786-0 > 10 µM | CAKI-1 > 10 µM | SF-539 > 10 µM | OVCAR-5 > 10 µM | OVCAR-8 > 10 µM | HCT-116 > 10 µM | PC-3 > 10 µM | ACHN > 10 µM | Malme-3M > 10 µM

COc1cccc(NC(=O)C(C#N)=C(SC)SC)c1
inactive: SF-295 > 100 µM | UACC-257 > 100 µM | RXF 393 > 100 µM | Hs-578T > 100 µM | BT-549 > 100 µM | 786-0 > 100 µM | A498 > 100 µM | CAKI-1 95.1 µM | SF-539 > 100 µM | NCI-H226 > 100 µM | OVCAR-5 > 100 µM | OVCAR-8 > 100 µM | HCT-116 > 100 µM | PC-3 > 100 µM | ACHN > 100 µM | Malme-3M > 100 µM

Cc1ccc(C(=O)CCC2C(=O)CC(C)(C)CC2=O)cc1
inactive: DU-145 > 100 µM | SF-295 > 100 µM | UACC-257 > 100 µM | RXF 393 > 100 µM | Hs-578T > 100 µM | BT-549 > 100 µM | 786-0 > 100 µM | CAKI-1 17.5 µM | UO-31 > 100 µM | SF-539 > 100 µM | NCI-H226 > 100 µM | OVCAR-5 > 100 µM | OVCAR-8 > 100 µM | HCT-116 > 100 µM | PC-3 > 100 µM | ACHN > 100 µM | OVCAR-3 > 100 µM

CC(CCC(=O)O)[C@H]1CCC2[C@H]3C(CC(=O)[C@@]21C)[C@@]1(C)CCC(O)C[C@H]1C[C@@H]3O (stereo not given in full)
inactive: DU-145 > 100 µM | UACC-257 > 100 µM | RXF 393 > 100 µM | RPMI-8226 > 100 µM | BT-549 > 100 µM | 786-0 > 100 µM | A498 > 100 µM | CAKI-1 > 100 µM | UO-31 > 100 µM | SF-539 > 100 µM | NCI-H226 > 100 µM | OVCAR-5 > 100 µM | OVCAR-8 > 100 µM | HCT-116 > 100 µM | PC-3 > 100 µM | ACHN > 100 µM | Malme-3M > 100 µM
